# Assay results: US6642355B2, “Endothelin-antagonizing peptide” (priority 1991, dated 2003)
# Where two headings read alike, the source gives them in different places. Bridge positions count the residues as written; N and C are the ends. Square brackets hold non-standard residues; d marks the D form. Ends that are not written are not given here. Peptide text beside a SMILES is read from it. 2Nal = N[C@@H](Cc1ccc2ccccc2c1)C(=O)O
# B1: Compound (I-45) (peptide)
# peptide: GNWHGTAPDWFFNYY
# modifications: lactam Gly 1 N-terminus to Asp 9 side chain; C-terminal carboxyl of Tyr 15 amidated with Trn, 2-(3-indolyl)ethylamine
# What was measured:
# [1] = system: endothelin-3; assay: Effect against airway contraction due to endothelin in anesthetized guinea pigs; format: in vivo; conditions: guinea pig; for Rate of inhibition (%) of airway contraction, earlier phase 30 seconds: 30 seconds after endothelin-3; for Rate of inhibition (%) of airway contraction, later phase 3 minutes: 3 minutes after endothelin-3
# Description: The in vivo effect of the compounds according to the present invention against airway contraction was evaluated according to a slightly modified version of the method of C. Touvay et al. described in European Journal of Pharmacology, 176, 23-33, 1990. That is, male Hartley guinea pigs weighing 350 to 550 grams each which had been previously β-blocked by intravenous injection of propranolol (3 mg/kg) were anesthetized, bronchial cannula were inserted therein and fixed, and connected to an artificial respirator. Next, spontaneous breathing was stopped with 10 mg/kg Gallamine triethiodide (product of sigma Co.), administered intravenously after which artificial respiration was initiated at a determined rate. A respiration volume measuring device was connected to the bronchial cannula bypass, and the change in the air flow was measured as an indication of airway contraction. Endothelin-3 (1.5 μmol/l; product of Peptide Institute, Inc.) was intravenously injected at a dose of 0.1 ml per 100 g body weight. Airway contraction (air flow increase) was observed immediately after injection, and was followed by a diphasic airway contraction reaction with an early and late phase which peaked at 30 seconds and 3 minutes, respectively.
# Rate of inhibition (%)=(1−b/a)×100 a: Airway contraction without injection of Compound (I-1) (control) b: Airway contraction with injection of Compound (I-1)
# [2] = biological target: T1, endothelin receptor (Bos taurus, UniProt P21450); assay: Endothelin receptor-antagonizing activity: 125I-endothelin-1 binding to bovine lung membrane fraction with […] Compound (I-1) added
# T1 construct: the suspension was used as the membrane fraction liquid; from tissue
# T1 sequence (P21450 21-427): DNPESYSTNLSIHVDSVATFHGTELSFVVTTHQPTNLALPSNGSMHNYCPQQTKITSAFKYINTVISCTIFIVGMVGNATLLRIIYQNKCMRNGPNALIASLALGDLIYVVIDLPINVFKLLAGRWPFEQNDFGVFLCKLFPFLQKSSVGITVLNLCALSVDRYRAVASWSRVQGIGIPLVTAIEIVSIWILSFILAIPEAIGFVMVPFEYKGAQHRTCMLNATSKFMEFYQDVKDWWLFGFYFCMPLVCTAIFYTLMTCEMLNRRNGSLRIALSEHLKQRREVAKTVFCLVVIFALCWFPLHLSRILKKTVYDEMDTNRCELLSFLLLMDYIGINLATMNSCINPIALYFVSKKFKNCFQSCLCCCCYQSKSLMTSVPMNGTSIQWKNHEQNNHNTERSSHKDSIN
# Description: Bovine lung tissue was homogenized at 4° C. using POLYTRON (type PT10/35, manufactured by Kinematica GmbH Co.) in a buffer solution A (pH 8.3) comprising 1 mM NaHCO3, 5 mM ethylenediaminetetraacetic acid, 5 μg/ml leupeptin, 5 μg/ml pepstatin A and 40 μM phenylmethylsulfonyl fluoride.
# The inhibition rate against endothelin receptor binding activity was calculated according to the following equation.
# Inhibition rate=(C−A/C−B)=100 (%)
# [3] = biological target: T2, endothelin receptor (Bos taurus, UniProt P28088); assay: Endothelin receptor-antagonizing effect: 125I-endothelin-1 binding to bovine cerebellar tissue membrane fraction
# T2 construct: from tissue; host or cells: bovine cerebellar membrane fraction
# T2 sequence (P28088 27-441): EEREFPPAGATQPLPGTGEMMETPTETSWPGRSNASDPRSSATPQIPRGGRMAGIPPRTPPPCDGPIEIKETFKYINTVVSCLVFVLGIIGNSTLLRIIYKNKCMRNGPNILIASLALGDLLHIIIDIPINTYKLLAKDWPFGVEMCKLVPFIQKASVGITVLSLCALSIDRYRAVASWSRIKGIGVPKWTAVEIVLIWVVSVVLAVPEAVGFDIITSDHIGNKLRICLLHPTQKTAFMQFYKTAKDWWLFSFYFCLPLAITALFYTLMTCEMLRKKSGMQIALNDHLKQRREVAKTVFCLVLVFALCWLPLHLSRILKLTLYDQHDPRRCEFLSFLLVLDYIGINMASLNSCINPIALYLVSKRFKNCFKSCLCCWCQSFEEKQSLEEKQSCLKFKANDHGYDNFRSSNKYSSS
# [4] = biological target: endothelin receptor of bovine lung tissue (membrane fraction) (bovine); assay: 125I-endothelin-1 displacement, bovine lung membrane fraction with 1.5 ug/ml Compound (I-1) added
# [5] = biological target: endothelin receptor of bovine cerebellar tissue (membrane fraction) (bovine); assay: 125I-endothelin-1 displacement, bovine cerebellar membrane fraction
# [6] = biological target: endothelin receptor of bovine cerebellar tissue (membrane fraction) (bovine); assay: as above; remark: listed apart in the source
# [7] = bovine cerebellar tissue membrane fraction
molecule,measurement,setting,value
C[C@@H]1NC(=O)[C@H]([C@@H](C)O)NC(=O)CNC(=O)[C@H](Cc2c[nH]cn2)NC(=O)[C@H](Cc2c[nH]c3ccccc23)NC(=O)[C@H](CC(N)=O)NC(=O)CNC(=O)C[C@@H](C(=O)N[C@@H](Cc2c[nH]c3ccccc23)C(=O)N[C@@H](Cc2ccccc2)C(=O)N[C@@H](Cc2ccccc2)C(=O)N[C@@H](CC(N)=O)C(=O)N[C@@H](Cc2ccc(O)cc2)C(=O)N[C@@H](Cc2ccc(O)cc2)C(=O)N[C@@H](Cc2c[nH]c3ccccc23)C(=O)O)NC(=O)[C@@H]2CCCN2C1=O [Compound I-1],"Rate of inhibition (%) of airway contraction, earlier phase 30 seconds",[1]; 0.1 mg/kg i.v.,12.5%
same,"Rate of inhibition (%) of airway contraction, later phase 3 minutes",[1]; 0.1 mg/kg i.v.,44.0%
same,"Rate of inhibition (%) of airway contraction, earlier phase 30 seconds",[1]; 0.3 mg/kg i.v.,46.0%
same,"Rate of inhibition (%) of airway contraction, later phase 3 minutes",[1]; 0.3 mg/kg i.v.,52.7%
same,"Rate of inhibition (%) of airway contraction, earlier phase 30 seconds",[1]; 1.0 mg/kg i.v.,91.8%
same,"Rate of inhibition (%) of airway contraction, later phase 3 minutes",[1]; 1.0 mg/kg i.v.,78.2%
C[C@@H]1NC(=O)[C@H]([C@@H](C)O)NC(=O)CNC(=O)[C@H](Cc2c[nH]cn2)NC(=O)[C@H](Cc2c[nH]c3ccccc23)NC(=O)[C@H](CC(N)=O)NC(=O)CNC(=O)C[C@@H](C(=O)N[C@@H](Cc2c[nH]c3ccccc23)C(=O)N[C@@H](Cc2ccccc2)C(=O)N[C@@H](Cc2ccccc2)C(=O)N[C@@H](CC(N)=O)C(=O)N[C@@H](Cc2ccc(O)cc2)C(=O)N[C@@H](Cc2ccc(O)cc2)C(=O)N[C@@H](Cc2c[nH]c3ccccc23)C(=O)OCc2ccccc2)NC(=O)[C@@H]2CCCN2C1=O [Compound I-47],IC50,[2],> 470 nM
same,IC50,[3]; [7],140 nM
CC[C@H](C)[C@H](NC(=O)[C@@H](NC(=O)[C@H](CC(=O)O)NC(=O)[C@H](CCC(N)=O)NC(=O)[C@H](Cc1c[nH]cn1)NC(=O)[C@H](C)NC(=O)[C@H](Cc1ccccc1)NC(=O)[C@H](Cc1ccc(O)cc1)NC(=O)[C@H](CC(C)C)NC(=O)[C@H](Cc1c[nH]c2ccccc12)NC(=O)[C@H](CC(=O)O)NC(=O)[C@@H]1CCCN1C(=O)[C@H](C)NC(=O)[C@@H](NC(=O)CNC(=O)[C@H](Cc1c[nH]cn1)NC(=O)[C@H](Cc1c[nH]c2ccccc12)NC(=O)[C@H](CC(N)=O)NC(=O)CN)[C@@H](C)O)C(C)C)C(=O)N[C@@H](Cc1c[nH]c2ccccc12)C(=O)O [Compound I-38],IC50,[3],0.33 nM
CC[C@H](C)[C@H](NC(=O)[C@H](CC(=O)O)NC(=O)[C@H](CC(C)C)NC(=O)[C@H](Cc1c[nH]cn1)NC(=O)[C@H](C)NC(=O)[C@H](Cc1ccc(O)cc1)NC(=O)[C@H](Cc1ccc(O)cc1)NC(=O)[C@@H](NC(=O)[C@H](Cc1c[nH]c2ccccc12)NC(=O)[C@H](CC(=O)O)NC(=O)[C@@H]1CCCN1C(=O)[C@H](C)NC(=O)[C@@H](NC(=O)CNC(=O)[C@H](Cc1c[nH]cn1)NC(=O)[C@H](Cc1c[nH]c2ccccc12)NC(=O)[C@H](CC(N)=O)NC(=O)CN)[C@@H](C)O)C(C)C)C(=O)N[C@H](C(=O)N[C@@H](Cc1c[nH]c2ccccc12)C(=O)O)[C@@H](C)CC [Compound I-37],IC50,[3]; [7],0.83 nM
C[C@@H]1NC(=O)[C@H]([C@@H](C)O)NC(=O)CNC(=O)[C@H](Cc2c[nH]cn2)NC(=O)[C@H](Cc2c[nH]c3ccccc23)NC(=O)[C@H](CC(N)=O)NC(=O)[C@@H](N)CSSC[C@@H](C(=O)N[C@@H](Cc2c[nH]c3ccccc23)C(=O)N[C@@H](Cc2ccccc2)C(=O)N[C@@H](Cc2ccccc2)C(=O)N[C@@H](CC(N)=O)C(=O)N[C@@H](Cc2ccc(O)cc2)C(=O)N[C@@H](Cc2ccc(O)cc2)C(=O)N[C@@H](Cc2c[nH]c3ccccc23)C(=O)O)NC(=O)[C@@H]2CCCN2C1=O [Compound I-7] (H-CNWHGTAPCWFFNYYW-OH; disulfide 1-9),IC50,[3],> 5000 nM
B1,IC50,[4],300 nM
same,IC50,[5],50 nM
GNWHGTAPDWFFNYY[2Nal]-OH (lactam N-9) [Compound (I-49)],IC50,[5],6.3 nM
GNWHGTAPDWFFNYYWWFFNYYW (lactam N-9) [Compound (I-19)],IC50,[5],370 nM
GNWHGTAPDWFFNYY (lactam N-9) [Compound (I-17)],IC50,[5],54 nM
GNWHGTAPDWFFNYYWVYFAHLDIIW (lactam N-9) [Compound (I-20)],IC50,[5],300 nM
GNWHGTAPDWFFNYYWW (lactam N-9) [Compound (I-18)],IC50,[5],36 nM
GNWHGTSPDWFFNYYW (modifications not checked) [Compound (I-3)],IC50,[6],5 nM
